Laboratory results taken from ChEMBL document CHEMBL4706528, “The design, synthesis and anti-tumor mechanism study of new androgen receptor degrader” (Eur J Med Chem, 2020).

Legend:
MCF7 = assay: Antiproliferative activity against androgen-positive human MCF7 cells assessed as cell growth inhibition measured after 72 hrs by SRB assay; format: functional, cell-based; details: MCF7, 72 h
LNCaP = assay: Antiproliferative activity against androgen-positive human LNCaP cells assessed as cell growth inhibition measured after 72 hrs by SRB assay; format: functional, cell-based
[1] = molecular target: T1, Androgen receptor (Homo sapiens) (UniProt P10275); assay: Binding affinity to androgen receptor LBD (unknown origin) at 10 uM incubated for 4 hrs under dark by fluorescence polarization based binding assay relative to R1881
T1 sequence (whole entry): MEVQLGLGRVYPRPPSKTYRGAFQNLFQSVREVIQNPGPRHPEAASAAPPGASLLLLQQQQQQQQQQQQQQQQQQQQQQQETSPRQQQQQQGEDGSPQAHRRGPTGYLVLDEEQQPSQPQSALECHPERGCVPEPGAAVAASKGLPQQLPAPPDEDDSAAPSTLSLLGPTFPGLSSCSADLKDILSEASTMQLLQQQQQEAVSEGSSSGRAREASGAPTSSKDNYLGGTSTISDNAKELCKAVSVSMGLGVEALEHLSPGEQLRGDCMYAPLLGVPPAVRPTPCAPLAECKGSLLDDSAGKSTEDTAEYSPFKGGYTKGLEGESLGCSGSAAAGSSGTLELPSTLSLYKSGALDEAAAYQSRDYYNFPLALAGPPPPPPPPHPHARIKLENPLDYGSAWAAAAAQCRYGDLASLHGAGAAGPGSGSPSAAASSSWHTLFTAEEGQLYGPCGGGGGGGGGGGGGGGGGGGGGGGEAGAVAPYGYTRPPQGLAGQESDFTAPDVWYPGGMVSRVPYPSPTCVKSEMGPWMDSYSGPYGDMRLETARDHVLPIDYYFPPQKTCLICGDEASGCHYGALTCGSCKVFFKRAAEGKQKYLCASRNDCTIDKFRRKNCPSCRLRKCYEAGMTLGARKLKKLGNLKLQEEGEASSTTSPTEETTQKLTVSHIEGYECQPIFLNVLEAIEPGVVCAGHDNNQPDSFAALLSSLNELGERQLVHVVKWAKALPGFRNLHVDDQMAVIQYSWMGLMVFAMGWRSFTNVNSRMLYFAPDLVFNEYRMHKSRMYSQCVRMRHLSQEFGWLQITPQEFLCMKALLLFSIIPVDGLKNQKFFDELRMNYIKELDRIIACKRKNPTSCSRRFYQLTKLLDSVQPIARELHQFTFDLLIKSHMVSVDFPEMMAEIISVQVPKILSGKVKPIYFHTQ

LNCaP C4-2B = assay: Antiproliferative activity against androgen-sensitive positive human LNCaP C4-2B cells assessed as cell growth inhibition measured after 72 hrs by SRB assay; format: functional, cell-based
PC-3 = assay: Antiproliferative activity against androgen-negative human PC-3 cells assessed as cell growth inhibition measured after 72 hrs by SRB assay; format: functional, cell-based; details: PC-3, 72 h
[2] = Cytotoxicity against androgen-negative human WPMY-1 cells assessed as cell growth inhibition measured after 72 hrs by SRB assay; format: cell-based; details: WPMY-1, 72 h
SGC-7901 = assay: Antiproliferative activity against androgen-positive human SGC-7901 cells assessed as cell growth inhibition measured after 72 hrs by SRB assay; format: functional, cell-based; details: SGC-7901, 72 h
GES1 = assay: Cytotoxicity against androgen-negative human GES1 cells assessed as cell growth inhibition measured after 72 hrs by SRB assay; format: cell-based; details: GES1, 72 h

Row | IC50 (MCF7) | IC50 (LNCaP) | Activity [1] | IC50 (LNCaP C4-2B) | IC50 (PC-3) | IC50 (SGC-7901) | SMILES | IC50 [2] | IC50 (GES1)
1 | 13.3 µM | 1.86 µM | 87.8% | 12.3 µM | > 80 µM | 7.79 µM | CC1(C)C(=O)N(c2ccc(C#N)c(C(F)(F)F)c2)C(=S)N1CCCCn1cc(COCCOCCOC(=O)CC23CC4CC(CC(C4)C2)C3)nn1 | > 80 µM | > 80 µM
2 | 9.12 µM | 4.06 µM | 74.6% | 6.03 µM | > 80 µM | 4.11 µM | CC1(C)C(=O)N(c2ccc(C#N)c(C(F)(F)F)c2)C(=S)N1CCCn1cc(COCCOCCOC(=O)CC23CC4CC(CC(C4)C2)C3)nn1 | > 80 µM | > 80 µM
3 | 7.73 µM | 3.97 µM | 79.5% | 5.8 µM | > 80 µM | 4.98 µM | CC1(C)C(=O)N(c2ccc(C#N)c(C(F)(F)F)c2)C(=S)N1CCCn1cc(COCCOCCOCCOC(=O)CC23CC4CC(CC(C4)C2)C3)nn1 | > 80 µM | > 80 µM
